Measured values: patent US9085555B2, “Complement pathway modulators and uses thereof” (priority 2011, dated 2015)
Like-named read-outs stand apart in the source and are kept apart here.

Target: Factor D (Homo sapiens (Human), UniProt P00746)
Assay: biochemical
Format: biochemical

Chain of Factor D (P00746 26-253): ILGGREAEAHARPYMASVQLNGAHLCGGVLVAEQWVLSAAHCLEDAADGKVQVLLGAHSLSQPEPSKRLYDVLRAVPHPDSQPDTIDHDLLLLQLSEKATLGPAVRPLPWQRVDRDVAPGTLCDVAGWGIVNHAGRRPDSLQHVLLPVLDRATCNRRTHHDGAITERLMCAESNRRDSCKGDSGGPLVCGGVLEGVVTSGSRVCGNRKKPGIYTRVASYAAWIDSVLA

Structure (SMILES) | IC50 (read-out: IC50) [nM] | IC50 [nM]
CCc1cc2c(C(N)=O)nn(CC(=O)N3C[C@H](F)C[C@H]3C(=O)Nc3cccc(OC(F)(F)F)c3F)c2cn1 [Example 715, 5-Ethyl-1-{2-[(2S,4R)-4-fluoro-2-(2-fluoro-3-trifluoromethoxy-phenylcarbamoyl)-pyrrolidin-1-yl]-2-oxo-ethyl}-1H-pyrazolo[3,4-c]pyridine-3-carboxylic acid amide] | 27 | 
[2H]C([2H])([2H])O[C@H]1[C@@H](C(=O)NCc2cccc(Cl)c2F)N(C(=O)Cn2cc(C(C)=O)c3ccccc32)C[C@@H]1F [Example 620, (2S,3S,4S)-1-[2-(3-Acetyl-indol-1-yl)-acetyl]-4-fluoro-3-methoxy-d3-pyrrolidine-2-carboxylic acid 3-chloro-2-fluoro-benzylamide] |  | 17
COCCOc1ccc2c(c1)c(NC(=O)N1C[C@](C)(F)C[C@H]1C(=O)NCc1cccc(Cl)c1F)cn2C(N)=O [Example 132, (2S,4R)-4-Fluoro-methyl-pyrrolidine-1,2-dicarboxylic acid 1-{[1-carbamoyl-5-(2-methoxy-ethoxy)-1H-indol-3-yl]-amide} 2-(3-chloro-2-fluoro-benzylamide)] | 18 | 
NC(=O)n1cc(NC(=O)N2CCS[C@H]2C(=O)Nc2cc(Br)cc(C(=O)O)c2)c2ccccc21 [Example 341, 3-Bromo-5-{[(S)-3-(1-carbamoyl-1H-indol-3-ylcarbamoyl)-thiazolidine-2-carbonyl]-amino}-benzoic acid] | 95 | 
C[C@@H]1CCN(C(=O)Nc2cn(C(N)=O)c3ccccc23)[C@@H]1C(=O)NCc1cccc(Cl)c1F [Example 126, (2S,3R)-3-Methyl-pyrrolidine-1,2-dicarboxylic acid 1-[(1-carbamoyl-1H-indol-3-yl)-amide] 2-(3-chloro-2-fluoro-benzylamide)] | 100 | 
NC(=O)n1cc(NC(=O)N2CCS[C@H]2C(=O)Nc2cncc(Cl)c2)c2ccccc21 [Example 310, (S)-Thiazolidine-2,3-dicarboxylic acid 3-[(1-carbamoyl-1H-indol-3-yl)-amide] 2-[(5-chloro-pyridin-3-yl)-amide]] | 475 | 
CC(C)(O)COc1ccc2c(c1)c(NC(=O)N1C3CC3C[C@H]1C(=O)NCc1cccc(Cl)c1F)cn2C(N)=O (stereo partly drawn) [Example 386, 1R,3S,5R)-2-Aza-bicyclo[3.1.0]hexane-2,3-dicarboxylic acid 2-{[1-carbamoyl-5-(2-hydroxy-2-methyl-propoxy)-1H-indol-3-yl]-amide}3-(3-chloro-2-fluoro-benzylamide] | 8 | 
COc1ccc2c(c1)c(C(C)=O)cn2CC(=O)N1CCCC[C@H]1C(=O)NCc1cccc(Cl)c1F [Example 501, (S)-1-[2-(3-Acetyl-5-methoxy-indol-1-yl)-acetyl]-piperidine-2-carboxylic acid 3-chloro-2-fluoro-benzylamide] | 471 | 
CC(=O)n1cc(NC(=O)N2[C@@H]3C[C@@H]3C[C@H]2C(=O)N[C@H](CO)c2cccc(Cl)c2F)c2ccccc21 [Example 129, (1R,3S,5R)-2-Azabicyclo[3.1.0]hexane-2,3-dicarboxylic acid 2-[(1-acetyl-1H-indol-3-yl)-amide] 3-{[(S)-1-(3-chloro-2-fluoro-phenyl)-2hydroxy-ethyl]-amide}] | 4 | 
NC(=O)c1cn(CC(=O)N2C[C@H](F)C[C@H]2C(=O)NCc2cccc(Cl)c2F)c2ccc(O)cc12 [Example 577, 1-{2-[(2S,4R)-2-(3-Chloro-2-fluoro-benzylcarbamoyl)-4-fluoro-pyrrolidin-1-yl]-2-oxo-ethyl}-5-hydroxy-1H-indole-3-carboxylic acid amide] | 71 | 
COC[C@@H](NC(=O)[C@@H]1C[C@H]2C[C@H]2N1C(=O)Cc1nc(C(C)=O)c2ccccn12)c1cccc(Cl)c1F [Example 678, (1R,3S,5R)-2-[2-(1-Acetyl-imidazo[1,5-a]pyridin-3-yl)-acetyl]-2-aza-bicyclo [3.1.0]hexane-3-carboxylic acid [(S)-1-(3-chloro-2-fluoro-phenyl)-2-methoxy-ethyl]-amide] | 40 | 
CO[C@H]1[C@@H](C(=O)Nc2cccc(Br)n2)N(C(=O)Cn2nc(C(N)=O)c3ccccc32)C[C@@H]1F [Example 754, 1-{2-[(2S,3S,4S)-2-(6-Bromo-pyridin-2-ylcarbamoyl)-4-fluoro-3-methoxy-pyrrolidin-1-yl]-2-oxo-ethyl}-1H-indazole-3-carboxylic acid amide] | 5 | 
NC(=O)n1cc(NC(=O)N2CCS[C@H]2C(=O)NCc2cnc(Cl)s2)c2ccccc21 [Example 263, (S)-Thiazolidine-2,3-dicarboxylic acid 3-[(1-carbamoyl-1H-indol-3-yl)-amide] 2-[(2-chloro-thiazol-5-ylmethyl)-amide]] | 400 | 
C[C@@]1(F)C[C@@H](C(=O)NCc2cccc(Cl)c2F)N(C(=O)Cc2cn(C(N)=O)c3ccc(OCCO)cc23)C1 [Example 459, 3-{2-[(2S,4R)-2-(3-Chloro-2-fluoro-benzylcarbamoyl)-4-fluoro-4-methyl-pyrrolidin-1-yl]-2-oxo-ethyl)-5-(2-hydroxy-ethoxy)-indole-1-carboxylic acid amide] | 211 | 
NC(=O)n1cc(NC(=O)N2C[C@H](F)C[C@H]2C(=O)NCc2cccc(Br)c2F)c2ccccc21 [Example 138, (2S,4R)-4-Fluoro-pyrrolidine-1,2-dicarboxylic acid 2-(3-bromo-2-fluoro-benzylamide) 1-[(1-carbamoyl-1H-indol-3-yl)-amide]] | 9 | 
COC(=O)[C@@H](NC(=O)[C@@H]1C[C@H](N)CN1C(=O)Nc1cn(C(N)=O)c2ccccc12)c1ccccc1 [Example 98, (S)-{[(2S,4S)-4-Amino-1-(1-carbamoyl-1H-indol-3-ylcarbamoyl)-pyrrolidine-2-carbonyl]-amino}-phenyl-acetic acid methyl ester] | 1850 | 
CO[C@H]1[C@@H](C(=O)Nc2cccc(Br)n2)N(C(=O)Cn2nc(C(C)=O)c3ccccc32)C[C@@H]1F [Example 756, (2S,3S,4S)-1-[2-(3-Acetyl-indazole-1-yl)-acetyl]-4-fluoro-3-methoxy-pyrrolidine-2-carboxylic acid (6-bromo-pyridin-2-yl)-amide] | 7 | 
NC[C@@]1(F)C[C@@H](C(=O)NCc2cccc(Cl)c2F)N(C(=O)Cc2cn(C(N)=O)c3ccccc23)C1 [Example 470, 3-{2-[(2S,4S)-4-Aminomethyl-2-(3-chloro-2-fluoro-benzylcarbamoyl)-4-fluoro-pyrrolidin-1-yl]-2-oxo-ethyl}-indole-1-carboxylic acid amide] | 250 | 
C=CCOc1ccc2c(c1)c(NC(=O)N1[C@@H]3C[C@@H]3C[C@H]1C(=O)NCc1cccc(Cl)c1F)cn2C(N)=O [Example 268, (1R,3S,5R)-2-Aza-bicyclo[3.1.0]hexane-2,3-dicarboxylic acid 2-[(5-allyloxy-1-carbamoyl-1H-indol-3-yl)-amide] 3-(3-chloro-2-fluoro-benzylamide)] | 8 | 
C[C@@]1(F)C[C@@H](C(=O)NCc2cccc(Cl)c2F)N(C(=O)Nc2cn(C(N)=O)c3ccc(OCC(=O)O)cc23)C1 [Example 375, (1-Carbamoyl-3-{[(2S,4R)-2-(3-chloro-2-fluoro-benzylcarbamoyl)-4-fluoro-4-methyl-pyrrolidine-1-carbonyl]-amino}-1H-indol-5-yloxy)-acetic acid] | 2 | 
NC(=O)n1cc(NC(=O)N2CC3O[C@@H]3[C@H]2C(=O)NCc2cccc(Cl)c2F)c2ccccc21 (stereo partly drawn) [Example 146, (1R,2S,5S)-6-Oxa-3-aza-bicyclo[3.1.0]hexane-2,3-dicarboxylic acid 3-[(1-carbamoyl-1H-indol-3-yl)-amide] 2-(3-chloro-2-fluoro-benzylamide)] | 9 | 
CO[C@H]1[C@@H](C(=O)NCc2cccc(Cl)c2F)N(C(=O)Cn2nc(C(C)=O)c3ccc(C(=O)O)cc32)C[C@@H]1F [Example 640, 3-Acetyl-1-{2-[(2S,3S,4S)-2-(3-chloro-2-fluoro-benzylcarbamoyl)-4-fluoro-3-methoxy-pyrrolidin-1-yl]-2-oxo-ethyl}-1H-indazole-6-carboxylic acid] | 8 | 
Cc1cc2c(C(N)=O)nn(CC(=O)N3[C@H](C(=O)Nc4cccc(Br)n4)C[C@@]4(C)C[C@@H]34)c2cn1 [Example 745, 1-{2-[(1R,3S,5R)-3-(6-Bromo-pyridin-2-ylcarbamoyl)-5-methyl-2-aza-bicyclo[3.1.0]hex-2-yl]-2-oxo-ethyl}-5-methyl-1H-pyrazolo[3,4-c]pyridine-3-carboxylic acid amide] | 5 | 
CC(=O)c1nn(CC(=O)N2[C@@H]3C[C@@H]3C[C@H]2C(=O)Nc2cccc(Br)n2)c2ccc(OCc3ncccn3)cc12 [Example 748, (1R,3S,5R)-2-{2-[3-Acetyl-5-(pyrimidin-2-ylmethoxy)-indazol-1-yl]-acetyl}-2-aza-bicyclo[3.1.0]hexane-3-carboxylic acid (6-bromo-pyridin-2-yl)-amide] | 4 | 
CC(=O)c1cn(CC(=O)N2[C@@H]3C[C@@H]3C[C@H]2C(=O)Nc2cccc(Br)n2)c2ncccc12 [Example 750, (1R,3S,5R)-2-[2-(3-Acetyl-pyrrolo[2,3-b]pyridin-1-yl)-acetyl]-2-aza-bicyclo[3.1.0] hexane-3-carboxylic acid (6-bromo-pyridin-2-yl)-amide] | 34 | 
CC(=O)c1cn(CC(=O)N2C[C@H](F)C[C@H]2C(=O)NCc2cccc(Br)c2F)c2ccccc12 [Example 516, (2S,4R)-1-[2-(3-Acetyl-indol-1-yl)-acetyl]-4-fluoro-pyrrolidine-2-carboxylic acid 3-bromo-2-fluoro-benzyl amide] | 8 | 
CC(=O)n1cc(NC(=O)N2[C@@H]3C[C@@H]3C[C@H]2C(=O)N[C@H](CN(C)C)c2cccc(Cl)c2F)c2ccccc21 [Example 281, (1R,3S,5R)-2-Aza-bicyclo[3.1.0]hexane-2,3-dicarboxylic acid 2-[(1-acetyl-1H-indol-3-yl)-amide] 3-{[(S)-1-(3-chloro-2-fluoro-phenyl)-2-dimethylamino-ethyl]-amide}] | 18 | 
NC[C@H]1C[C@@H](C(=O)Nc2cccc(OC(F)(F)F)c2)N(C(=O)Nc2cn(C(N)=O)c3ccccc23)C1 [Example 403, (2S,4R)-4-Aminomethyl-pyrrolidine-1,2-dicarboxylic acid 1-[(1-carbamoyl-1H-indol-3-yl)-amide]2-[(3-trifluoromethoxy-phenyl)-amide]] | 1000 | 
